Measurements as given in ChEMBL document CHEMBL1201862, “PubChem BioAssay data set” (2004).
Blank lines part the entries; values can stand above or below the compound they belong to. Activity calls are given as the source filed them.

Key:
[1] = target: T1, Corticotropin-releasing factor receptor 2/Corticotropin-releasing factor-binding protein (Homo sapiens, UniProt P24387+Q13324); test: activators of CRF receptor 2 with binding protein – uHTS hits, confirmation (AID 602473); assay type: functional; details: read-out: EC50_Mean
T1 sequence (Q13324 whole entry): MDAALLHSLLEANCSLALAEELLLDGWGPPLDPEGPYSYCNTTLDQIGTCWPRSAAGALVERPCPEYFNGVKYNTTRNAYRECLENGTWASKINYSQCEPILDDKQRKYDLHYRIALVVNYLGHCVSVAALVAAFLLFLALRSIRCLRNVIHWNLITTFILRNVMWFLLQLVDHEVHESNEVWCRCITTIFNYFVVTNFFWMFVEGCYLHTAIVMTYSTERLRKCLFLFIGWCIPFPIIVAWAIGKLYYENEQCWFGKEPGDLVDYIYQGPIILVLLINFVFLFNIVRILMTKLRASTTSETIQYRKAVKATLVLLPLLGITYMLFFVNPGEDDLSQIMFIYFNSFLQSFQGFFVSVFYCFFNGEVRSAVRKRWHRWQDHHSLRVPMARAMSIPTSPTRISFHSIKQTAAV
T1 sequence (P24387 whole entry): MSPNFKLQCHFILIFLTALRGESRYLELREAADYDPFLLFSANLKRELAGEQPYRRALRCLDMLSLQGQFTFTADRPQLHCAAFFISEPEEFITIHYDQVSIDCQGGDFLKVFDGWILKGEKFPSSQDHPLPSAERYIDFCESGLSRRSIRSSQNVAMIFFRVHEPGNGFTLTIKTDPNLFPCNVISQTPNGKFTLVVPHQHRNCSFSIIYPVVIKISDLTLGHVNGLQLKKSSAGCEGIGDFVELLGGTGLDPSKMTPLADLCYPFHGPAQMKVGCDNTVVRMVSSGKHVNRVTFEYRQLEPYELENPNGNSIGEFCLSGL

[2] = target: T1, Corticotropin-releasing factor receptor 2/Corticotropin-releasing factor-binding protein; test: Dose Response confirmation of uHTS hits for small molecule antagonists of the CRF-binding protein and CRF-R2 receptor complex.; assay type: functional; details: read-out: IC50_Mean
Cytochrome P450 1A2 = target: T2, Cytochrome P450 1A2 (Homo sapiens, UniProt P05177);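 also: PubChem cytochrome P450 panel assay, CYP1A2 panel member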
T2 sequence (P05177 whole entry): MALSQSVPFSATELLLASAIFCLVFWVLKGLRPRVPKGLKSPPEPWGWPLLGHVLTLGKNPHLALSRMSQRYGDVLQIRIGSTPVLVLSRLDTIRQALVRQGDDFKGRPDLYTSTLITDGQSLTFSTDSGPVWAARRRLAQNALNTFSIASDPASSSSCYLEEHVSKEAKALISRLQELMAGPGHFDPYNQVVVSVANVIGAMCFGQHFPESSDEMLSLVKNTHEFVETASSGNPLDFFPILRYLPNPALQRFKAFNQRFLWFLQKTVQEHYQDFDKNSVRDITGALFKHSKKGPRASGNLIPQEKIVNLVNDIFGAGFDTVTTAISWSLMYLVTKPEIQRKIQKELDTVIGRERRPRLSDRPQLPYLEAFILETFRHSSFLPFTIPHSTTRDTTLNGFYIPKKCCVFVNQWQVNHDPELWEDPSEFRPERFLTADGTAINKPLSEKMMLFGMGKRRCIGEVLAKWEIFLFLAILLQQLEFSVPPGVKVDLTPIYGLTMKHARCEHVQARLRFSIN

Cytochrome P450 2C9 [3] = target: T3, Cytochrome P450 2C9 (Homo sapiens, UniProt P11712)
Cytochrome P450 2C19 = Cytochrome P450 2C19 (Homo sapiens, UniProt P33261); test: Cytochrome panel assay with activity outcomes. Panel member name: p450-cyp2c19 Compounds with AC50 equal or less than 10 uM are considered active; assay type: functional
Cytochrome P450 2C9 [4] = target: T3, Cytochrome P450 2C9; remark: listed apart in the source
[5] = NIH3T3 cell viability loss – ATP luminescence, mouse fibroblasts, counter-screen, dose response (AID 2010); assay type: functional, cell-based;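 also: cells exposed to compound for about 90 hours before reading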
Cytochrome P450 3A4 = Cytochrome P450 3A4 (Homo sapiens, UniProt P08684);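 also: CYP3A4 tested as one member of a cytochrome P450 panel screen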
[6] = Trypanosoma cruzi growth suppression in host cells – NIH3T3 host cells, beta-gal luminescence, confirmation (AID 2044); assay type: functional, cell-based;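 also: intracellular parasites grown in NIH/3T3 mouse fibroblasts as host cells; luminescent beta-galactosidase reporter signal from transgenic T. cruzi replicating inside host cells; inhibitors lower the luminescence signal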
[7] = NIH-3T3 fibroblast cytotoxicity, dose response, cytotoxicity control, cell-based, fluorescence, Alamar Blue, secondary assay (AID 2327); assay type: functional;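 also: NIH-3T3 mouse fibroblasts cultured with fluconazole at 8 µg/mL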
[8] = fluconazole-exposed Candida albicans growth modulators – fluorescence, retest, confirmation (AID 2467); assay type: functional, cell-based
[9] = test system: Streptococcus sp. 'group A'; test: Streptococcus pyogenes SK(-)GAS viability under kanamycin – luminescence, BacTiterGlo, confirmation, counter-screen for streptokinase expression inhibitor project, dose response (AID 1900); assay type: functional, organism-based
Streptococcus = test: GAS UMAA2166 growth inhibition – luminescence, BacTiterGlo, counter-screen for streptokinase expression inhibitor project, dose response (AID 1915); assay type: functional, organism-based;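 also: potency for reduction of bacterial viability or growth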
Cytochrome P450 2D6 = Cytochrome P450 2D6 (Homo sapiens, UniProt P10635);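 also: CYP2D6 member of a cytochrome P450 panel assay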
Sequence of Cytochrome P450 2D6 (P10635 whole entry): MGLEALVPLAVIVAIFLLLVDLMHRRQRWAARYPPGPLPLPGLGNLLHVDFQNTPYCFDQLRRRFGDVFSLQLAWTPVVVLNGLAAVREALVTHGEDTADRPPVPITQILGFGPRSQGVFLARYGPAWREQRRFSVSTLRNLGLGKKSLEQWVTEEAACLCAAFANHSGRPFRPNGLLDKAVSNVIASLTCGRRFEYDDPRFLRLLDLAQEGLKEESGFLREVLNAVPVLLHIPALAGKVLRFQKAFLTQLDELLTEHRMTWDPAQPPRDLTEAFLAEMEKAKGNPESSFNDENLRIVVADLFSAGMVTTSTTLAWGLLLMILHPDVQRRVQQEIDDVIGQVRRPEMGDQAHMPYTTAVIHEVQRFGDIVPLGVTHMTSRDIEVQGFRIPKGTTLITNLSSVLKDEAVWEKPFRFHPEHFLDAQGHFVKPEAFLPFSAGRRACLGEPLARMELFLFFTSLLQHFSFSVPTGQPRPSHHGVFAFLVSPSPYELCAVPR

T3 sequence (P11712 whole entry): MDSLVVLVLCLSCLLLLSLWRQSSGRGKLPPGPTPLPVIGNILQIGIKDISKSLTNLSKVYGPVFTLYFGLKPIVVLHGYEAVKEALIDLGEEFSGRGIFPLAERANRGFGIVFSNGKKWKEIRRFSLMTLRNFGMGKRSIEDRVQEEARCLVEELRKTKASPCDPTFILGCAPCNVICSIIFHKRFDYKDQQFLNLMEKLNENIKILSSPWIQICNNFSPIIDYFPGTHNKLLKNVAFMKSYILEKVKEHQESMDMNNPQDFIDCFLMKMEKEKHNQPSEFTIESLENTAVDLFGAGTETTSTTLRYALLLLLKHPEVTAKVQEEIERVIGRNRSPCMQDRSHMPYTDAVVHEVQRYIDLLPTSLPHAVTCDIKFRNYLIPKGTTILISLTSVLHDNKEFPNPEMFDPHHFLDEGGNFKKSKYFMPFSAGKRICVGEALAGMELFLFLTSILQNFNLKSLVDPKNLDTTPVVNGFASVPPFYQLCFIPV
Sequence of Cytochrome P450 3A4 (P08684 whole entry): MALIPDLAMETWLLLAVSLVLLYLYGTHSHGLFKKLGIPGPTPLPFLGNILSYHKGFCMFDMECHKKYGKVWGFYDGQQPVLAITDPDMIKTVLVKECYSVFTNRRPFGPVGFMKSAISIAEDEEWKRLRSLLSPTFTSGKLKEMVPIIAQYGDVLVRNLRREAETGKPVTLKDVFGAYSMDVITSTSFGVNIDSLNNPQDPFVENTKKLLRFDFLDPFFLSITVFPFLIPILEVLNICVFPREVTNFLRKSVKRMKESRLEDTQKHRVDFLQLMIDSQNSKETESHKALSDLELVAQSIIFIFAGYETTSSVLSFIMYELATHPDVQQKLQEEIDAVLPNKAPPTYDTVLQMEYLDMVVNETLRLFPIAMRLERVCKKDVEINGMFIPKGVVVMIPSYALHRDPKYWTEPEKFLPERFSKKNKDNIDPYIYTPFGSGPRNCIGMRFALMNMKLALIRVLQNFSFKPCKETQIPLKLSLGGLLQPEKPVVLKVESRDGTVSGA
Sequence of Cytochrome P450 2C19 (P33261 whole entry): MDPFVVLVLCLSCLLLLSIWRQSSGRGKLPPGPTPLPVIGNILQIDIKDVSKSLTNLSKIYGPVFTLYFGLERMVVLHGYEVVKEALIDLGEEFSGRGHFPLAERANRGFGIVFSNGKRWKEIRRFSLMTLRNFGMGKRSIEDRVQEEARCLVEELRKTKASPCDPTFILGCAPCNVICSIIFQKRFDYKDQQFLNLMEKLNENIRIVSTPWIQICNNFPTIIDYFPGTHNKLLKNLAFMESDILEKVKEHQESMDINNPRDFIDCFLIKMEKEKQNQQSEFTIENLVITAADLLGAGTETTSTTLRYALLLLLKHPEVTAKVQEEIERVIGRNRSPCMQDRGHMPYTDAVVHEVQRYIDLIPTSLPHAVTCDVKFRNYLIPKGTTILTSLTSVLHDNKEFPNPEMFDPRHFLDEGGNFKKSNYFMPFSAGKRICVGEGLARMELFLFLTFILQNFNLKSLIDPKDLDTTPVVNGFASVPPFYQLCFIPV

EC50 [1]: > 53 µM (inactive)
IC50 [2]: > 47.1 µM (inactive)
Structure (SMILES): O=c1cc(Cc2ccc([N+](=O)[O-])cc2)[nH]c(=O)[nH]1

AC50 (Cytochrome P450 1A2): 28.2 µM (inconclusive)
AC50 (Cytochrome P450 2C9 [3]): 5.01 µM (inconclusive)
Structure (SMILES): CCC(C)NC(=O)c1c(C)cc(=O)oc1C (stereo unspecified)

EC50 [1]: > 53 µM (inactive)
IC50 [2]: > 47.1 µM (inactive)
Structure (SMILES): CCOc1ccc(NC(=O)CCCN2C(=O)C(c3ccccc3)Oc3cccnc32)cc1 (stereo unspecified)

AC50 (Cytochrome P450 2C19): inconclusive
AC50 (Cytochrome P450 2C9 [4]): inconclusive
Structure (SMILES): CN(C)c1nc(C#N)nc(N2CCOCC2)n1

Structure (SMILES): COC(=O)c1c(C)[nH]c(O)c1/C=N/c1ccc(C(C)C)cc1
EC50 [1]: > 53 µM (inactive)
AC50 (Cytochrome P450 2C19; read-out: AC50): 25.1 µM (inconclusive)
EC50 [5]: > 60 µM (inconclusive)
AC50 (Cytochrome P450 3A4): 28.2 µM (inconclusive)
AC50 (Cytochrome P450 2C9 [3]): 28.2 µM (inconclusive)
EC50 [6]: 4.19 µM (active)

AC50 (Cytochrome P450 2C9 [4]): inconclusive
Structure (SMILES): CCc1ccc(N2C(=O)c3ccc4c5c(ccc(c35)C2=O)CC4)cc1

EC50 [1]: > 53 µM (inactive)
IC50 [2]: > 47.1 µM (inactive)
Structure (SMILES): O=C(CN1C(=O)NC2(CCCC2)C1=O)c1ccc(Cl)s1

AC50 (Cytochrome P450 2C9 [4]): inconclusive
Structure (SMILES): CCOc1ccccc1NC(=O)CN1CCC(NC(=O)c2ccccc2)CC1

Structure (SMILES): O=C(CCCCCN1C(=O)c2cccc3cccc(c23)C1=O)N1CCOCC1
EC50 [7]: 22.3 µM (active)
EC50 [8]: > 38 µM (not active)

AC50 (Cytochrome P450 3A4): 31.6 µM (inconclusive)
AC50 (Cytochrome P450 2C9 [4]): inconclusive
Structure (SMILES): COc1ccccc1NC(=O)c1cnc2n(c1=O)CCS2

AC50 (Cytochrome P450 2C9 [4]): inconclusive
Structure (SMILES): O=C(c1cc(C(F)(F)F)cc(C(F)(F)F)c1)N1CCC2(CC1)CCN(c1ncccn1)CC2

EC50 [1]: > 53 µM (inactive)
IC50 [2]: > 47.1 µM (inactive)
Structure (SMILES): Cc1ccc(S(=O)(=O)n2nnc3ccccc32)c(C)c1C

AC50 (Cytochrome P450 2C9 [4]): inconclusive
Structure (SMILES): Cc1noc(C)c1C(=O)N1CCC2(CCN(Cc3ccccc3)CC2)CC1

AC50 (Cytochrome P450 2C19; read-out: AC50): 28.2 µM (inconclusive)
AC50 (Cytochrome P450 1A2): 12.6 µM (inconclusive)
AC50 (Cytochrome P450 2C9 [4]): inconclusive
Structure (SMILES): C/C(CC(=O)Nc1cc(Cl)ccc1Cl)=N\NC(N)=S

Structure (SMILES): COCc1nnc(NC(=O)c2ccc(S(=O)(=O)N3CCCc4ccccc43)cc2)o1
EC50 [7]: > 150 µM (inconclusive)
EC50 [8]: 2.96 µM (active)

AC50 (Cytochrome P450 3A4): 31.6 µM (inconclusive)
AC50 (Cytochrome P450 2C9 [4]): inconclusive
Structure (SMILES): CN(C)c1ccnc(-c2cccc(NS(C)(=O)=O)c2)n1

AC50 (Cytochrome P450 2C9 [4]): inconclusive
Structure (SMILES): COc1cc(OC)c(C#N)c(S(=O)(=O)Cc2ccccc2)c1

Structure (SMILES): CCc1ccc(OCC(=O)NNC(=S)NC(=O)C2CCCCC2)c(Br)c1
EC50 [9]: < 0.06 µM (active)
EC50 (Streptococcus): 3.91 µM (active)
EC50 [7]: > 150 µM (inactive)
EC50 [8]: 2.33 µM (active)

AC50 (Cytochrome P450 2C19; read-out: AC50): 25.1 µM (inconclusive)
AC50 (Cytochrome P450 2C9 [3]): 39.8 µM (inconclusive)
AC50 (Cytochrome P450 2D6): 14.1 µM (inconclusive)
Structure (SMILES): CSc1cccc(NC(=O)c2ccc(Cl)nc2)c1

AC50 (Cytochrome P450 3A4): 28.2 µM (inconclusive)
AC50 (Cytochrome P450 2C9 [4]): inconclusive
Structure (SMILES): Cc1ccccc1C(=O)NC(=S)NCC(=O)c1ccccc1

AC50 (Cytochrome P450 2C9 [4]): inconclusive
Structure (SMILES): COc1cccc(Nc2ncc3nc(-c4cn(C)c5ccccc45)c(=O)n(C[C@H]4CCCO4)c3n2)c1

AC50 (Cytochrome P450 2C9 [3]): 20 µM (inconclusive)
AC50 (Cytochrome P450 2D6): 39.8 µM (inconclusive)
Structure (SMILES): CCCCN1C(=O)CN(CCc2ccccc2)C(=O)C1c1ccc(OC)cc1 (stereo unspecified)

AC50 (Cytochrome P450 2C9 [4]): inconclusive
Structure (SMILES): Cc1cc2ccccc2c(=O)n1CC(=O)NCC(=O)N1CCCC1

AC50 (Cytochrome P450 2C9 [4]): inconclusive
Structure (SMILES): COc1ccc(CC(=S)N2CCOCC2)cc1OC

AC50 (Cytochrome P450 2C9 [4]): inconclusive
Structure (SMILES): Cc1nc2ccccn2c1C(=O)N/N=C/c1ccccc1[N+](=O)[O-]

Structure (SMILES): O=C(/C=C/c1ccccc1)NC(=S)Nc1ccc(N2CCOCC2)c(Cl)c1
EC50 [7]: > 160 µM (inactive)
EC50 [8]: 5.76 µM (active)

AC50 (Cytochrome P450 3A4): 25.1 µM (inconclusive)
AC50 (Cytochrome P450 2C9 [3]): 8.91 µM (inconclusive)
AC50 (Cytochrome P450 2D6): 17.8 µM (inconclusive)
Structure (SMILES): CCN1C/C(=C\c2cccc(C)c2)c2nc3ccccc3c(C(=O)O)c2C1

AC50 (Cytochrome P450 2C9 [3]): 31.6 µM (inconclusive)
AC50 (Cytochrome P450 2D6): 15.8 µM (inconclusive)
Structure (SMILES): O=C(c1cc(C(F)(F)F)cc(C(F)(F)F)c1)N1CCC2(CCCN(c3ccncc3)C2)CC1
